This note sets out measurements from patent US8362031B2, “Lonidamine analogues and treatment of polycystic kidney disease” (University of Kansas, priority 2004, dated 2013).

One assay has as its system P-ERK. Kind of assay: Western blot of treated ADPKD cells. Type of assay: cell-based, human. The note with it: 50 uM for 48 h, n=2. As for the experimental part: (§1) Gamendazole (GMZ) was tested to determine if treatment decreases Hsp90 client protein levels in ADPKD cells. Briefly, ADPKD cells were treated with 50 μM GMZ for 24, 48 or 72 hours. Proteins from 20 μg total cell lysate were separated by SDS-PAGE, transferred to a PVDF membrane and probed with antibodies against the Hsp90 client proteins ErbB2 (185 kD), and cdk4 (34 kD). […] GMZ decreased the total levels of these client proteins in ADPKD cells. A decrease in P-ERK correlates with the inhibition of cell proliferation by GMZ. […] The data also provides an indication that other lonidamine derivatives may be useful in therapies for PKD.

The subject of a further assay is total ERK. Nature of the assay: Western blot of treated ADPKD cells. It is filed as cell-based, human. The note with it: 50 uM for 48 h. As for the experimental part:
as §1

SMILES strings stand for the structures.

Turning to `O=C(O)CCc1nn(Cc2ccc(Cl)cc2Cl)c2cc(C(F)(F)F)ccc12` [GMZ, 3-[1-(2,4-dichlorobenzyl)-6-trifluoromethyl-1H-indazol-3-yl]-propionic acid], the P-ERK levels in the assay on P-ERK is on record as 71.2 % of controls. The “total ERK levels” value in the assay with total ERK is “unchanged”.
